# Read-outs that look alike come from different tables or passages of the source.
# Tests used:
# APTT = test: Activated partial thromboplastin (APTT) coagulation assay after dabigatran; type: in vivo, human; settings: for APTT-peak / APTT-0 h / APTT-trough: NVAF patients, 110 mg bid, target range 26.9–37.6 s; for APTT-peak: peak (1.0–3.0 h post dose); for APTT-0 h: pre-dose; for APTT-trough: trough (>10 h after previous dose)
# Protocol: (§1) For detecting pharmacodynamics (PD) parameters, the sampling times were 0, 2, 8, 12 h after dabigatran administration respectively. In patients’ population, plasma sample obtained longer than 10 h after the previous dose was considered for trough concentration; average 2.0 h (range: 1.0–3.0 h) post dose was considered for peak concentration. The reference detection range refers to plasma dabigatran concentrations between the 2.5th and 97.5th percentiles of all values determined by HPLC-MS/MS.
# (§2) Blood samples were collected via 2.7 ml sodium citrate tubes, then centrifuged for 15 min at 2,500 g at room-temperature. The plasma samples were stored at –70°C within 6 months until analysis.
# (§3) Pharmacodynamic assessment was performed at a centralized facility in Peking University First Hospital. The HTI, PT, and APTT were measured on Sysmex CS-2100i (Sysmex, Kobe, Japan). PT and APTT were tested using Coagulation Method Assay Kits (Thromborel-S® and Actin®, Marburg, Germany). The normal reference range for the PT and APTT assays used in this study are 10.1–12.6 s for PT and 26.9–37.6 s for APTT. Concentration detection is divided into two standard curves, one is suitable for normal and slightly high concentration range, another one is suitable for low concentration range. When the concentration is below 120 ng/ml, the low concentration standard curve is switched to obtain a more accurate concentration value. […] PD assessment was all performed in our hospital.
# [1] = Hemoclot thrombin inhibitor (HTI) assay of plasma dabigatran concentration; type: in vivo, human; settings: for HTI-peak: peak (1.0–3.0 h post dose); for HTI-trough: trough (>10 h after previous dose)
# Protocol: as §1, §2, §3
# PT = test: Prothrombin time (PT) coagulation assay after dabigatran; type: in vivo, human; settings: for PT-peak / PT-0 h / PT-trough: NVAF patients, 110 mg bid, target range 10.1–12.6 s; for PT-peak: peak (1.0–3.0 h post dose); for PT-0 h: pre-dose; for PT-trough: trough (>10 h after previous dose)
# Protocol: as §1, §2, §3
# [2] = design: method as in PMID 23718677; settings: dabigatran 150 mg, American population; cited from earlier work
# [3] = Plasma dabigatran concentration and pharmacokinetics by HPLC-MS/MS; type: in vivo, human; settings: healthy subjects, single dose 150 mg; for AUC(0-t): 150 mg
# Protocol: The venous blood samples were collected 0 h and post-dose at 16–19 time points in 3.0 ml EDTA-K2 tubes and centrifuged at 4°C for 10 min at 3,000 g. The plasma samples were stored at –80°C until analysis.
# The total anti-thrombin effect from dabigatran etexilate is a result of dabigatran (alone) and dabigatran acylglucuronides. An assay for total dabigatran (the sum of free dabigatran and the contribution from dabigatran acylglucuronides) in plasma is developed, validated and applied ([21], [22]). Thus, dabigatran concentrations were determined by validated HPLC-MS/MS assays at Shimadzu 30 series, API 6500 (Applied Biosystems, Inc., American). The standard calibration curves with good linearity were built for dabigatran within the concentration range of 1.0–300.0 ng/mL, and the lower limit of quantitation (LOQ) was 1.0 ng/mL. The precision (% CV), intra-batch accuracy and inter-batch accuracy were within 6.2–9.2, 90.3–104.3, and 94.6–103.8%, respectively. PK parameters were analyzed by non-compartmental methods using Phoenix Win-Non-lin 7.0 (A Certara™ Company, Princeton, NJ, United States). Cmax (Maximum concentration) and Tmax (the time to Cmax) were obtained from the observed data, while terminal half-life (t1/2), plasma concentration vs. time from 0 to the last measurable time point (AUC0–t) were calculated.
# as §1
# [4] = 183 patients, 110 mg bid, HTI assay, about 500 blood samples
# [5] = NVAF patients, 110 mg bid, HTI-derived concentration
# [6] = NVAF patients, 110 mg bid, HTI-derived concentration, listed as dabigatran
compound,measurement,setting,value
[H]/N=C(/N)c1ccc(NCc2nc3cc(C(=O)N(CCC(=O)O)c4ccccn4)ccc3n2C)cc1 [Dabigatran],APTT-peak,APTT,47.89 ± 4.43 s
same,APTT-peak,APTT; listed as dabigatran,47.89 s
same,APTT-0 h,APTT,36.47 ± 8.40 s
same,APTT-0 h,APTT; listed as dabigatran,36.47 s
same,APTT-trough,APTT,39.08 ± 9.74 s
same,APTT-trough,APTT; listed as dabigatran,39.08 s
same,APTT–0 h,"APTT; healthy subjects, single dose 150 mg, 0 h (pre-dose), reference range 26.9–37.6 s",27.78 ± 3.50 s
same,APTT–2 h,"APTT; healthy subjects, single dose 150 mg, 2 h, reference range 26.9–37.6 s",39.69 ± 10.69 s
same,APTT–8 h,"APTT; healthy subjects, single dose 150 mg, 8 h, reference range 26.9–37.6 s",38.52 ± 6.00 s
same,APTT–12 h,"APTT; healthy subjects, single dose 150 mg, 12 h, reference range 26.9–37.6 s",35.22 ± 5.37 s
same,expected peak levels range,[1]; [4],95 to 196 ng/mL
same,expected trough levels range,[1]; [4],36 to 92 ng/mL
same,HTI-peak,[1]; [5],145.57 ± 50.16 ng/mL
same,HTI-peak,[1]; [6],145.57 ng/mL
same,HTI-0 h,"[1]; NVAF patients, 110 mg bid, pre-dose, HTI-derived concentration",4.06 ± 2.92 ng/mL
same,HTI-trough,[1]; [5],63.74 ± 27.95 ng/mL
same,HTI-trough,[1]; [6],63.74 ng/mL
same,HTI–2 h,"[1]; healthy subjects, single dose 150 mg, 2 h, HTI-derived concentration",88.89 ± 79.08 ng/mL
same,HTI–8 h,"[1]; healthy subjects, single dose 150 mg, 8 h, HTI-derived concentration",61.91 ± 27.46 ng/mL
same,HTI–12 h,"[1]; healthy subjects, single dose 150 mg, 12 h, HTI-derived concentration",40.00 ± 16.63 ng/mL
same,concentration at 0 h,"[1]; human, plasma, oral, NVAF patients, 110 mg bid, pre-dose, HTI-derived concentration",4.06 ng/mL
same,concentration at 0 h,"[1]; human, plasma, oral, healthy subjects, single dose 150 mg, 0 h (pre-dose), HTI-derived concentration",2.99 ± 2.37 ng/mL
same,concentration at 2 h,"[1]; human, plasma, oral, healthy subjects, single dose 150 mg, 2 h, HTI-derived concentration",88.9 ng/mL
same,concentration at 8 h,"[1]; human, plasma, oral, healthy subjects, single dose 150 mg, 8 h, HTI-derived concentration",61.9 ng/mL
same,concentration at 12 h,"[1]; human, plasma, oral, healthy subjects, single dose 150 mg, 12 h, HTI-derived concentration",40 ng/mL
same,PT-peak,PT,14.04 ± 3.50 s
same,PT-peak,PT; listed as dabigatran,14.04 s
same,PT-0 h,PT,15.58 ± 5.90 s
same,PT-0 h,PT; listed as dabigatran,15.58 s
same,PT-trough,PT,13.79 ± 6.15 s
same,PT-trough,PT; listed as dabigatran,13.79 s
same,PT–0 h,"PT; healthy subjects, single dose 150 mg, 0 h (pre-dose), reference range 10.1–12.6 s",11.74 ± 1.88 s
same,PT–2 h,"PT; healthy subjects, single dose 150 mg, 2 h, reference range 10.1–12.6 s",12.83 ± 1.58 s
same,PT–8 h,"PT; healthy subjects, single dose 150 mg, 8 h, reference range 10.1–12.6 s",12.44 ± 1.31 s
same,PT–12 h,"PT; healthy subjects, single dose 150 mg, 12 h, reference range 10.1–12.6 s",11.97 ± 0.92 s
same,reference detection range,[2],27 to 411 ng/mL
same,C–2 h,"[3]; 2 h, HPLC-MS/MS, mean ± SD",85.51 ± 73.77 ng/mL
same,C–8 h,"[3]; 8 h, HPLC-MS/MS, mean ± SD",57.60 ± 23.46 ng/mL
same,C–12 h,"[3]; 12 h, HPLC-MS/MS, mean ± SD",36.40 ± 3.15 ng/mL
same,Cmax,[3]; mean ± SD,139.99 ± 55.61 ng/mL
same,reference detection range,[3]; 2.5th to 97.5th percentiles of plasma concentrations by HPLC-MS/MS,33 to 159 ng/mL
same,AUC(0-t),"[3]; human, plasma, oral, mean ± SD, read-out: AUC0–12",1290 ± 442 ng·h/mL
same,AUC(0-t),"[3]; human, plasma, oral, mean ± SD, read-out: AUC0–t",1250 ± 442 ng·h/mL
same,concentration at 0 h,"[3]; human, plasma, oral, 0 h (pre-dose), HPLC-MS/MS, mean ± SD, read-out: C–0 h",0 ng/mL
same,concentration at 2 h,"[3]; human, plasma, oral, 2 h, HPLC-MS/MS, mean ± SD, read-out: C–2 h",85.5 ng/mL
same,concentration at 8 h,"[3]; human, plasma, oral, 8 h, HPLC-MS/MS, mean ± SD, read-out: C–8 h",57.6 ng/mL
same,concentration at 12 h,"[3]; human, plasma, oral, 12 h, HPLC-MS/MS, mean ± SD, read-out: C–12 h",36.4 ng/mL
same,Tmax,"[3]; human, plasma, oral, mean ± SD",3.61 ± 2.09 h
same,half-life,"[3]; human, plasma, oral, mean ± SD",8.78 ± 1.33 h

# — article PMC9353555, “Hemoclot Thrombin Inhibitor Assay and Expected Peak-Trough Levels of Dabigatran: A Multicenter Study” (Frontiers in Cardiovascular Medicine, 2022)
